How the values were obtained:
Format in all cases: cell-based
[1] = system: Enterococcus gallinarum 245; experiment: MIC, standard broth micro-dilution assay, EG 245
Procedure: (§1) The antibacterial efficacy of the present compounds is illustrated by Table III. The minimal inhibitory concentrations (MICs) were determined using a standard broth micro-dilution assay.

[2] = system: Staphylococcus haemolyticus 415; experiment: MIC, standard broth micro-dilution assay, SH 415
Procedure: as §1

[3] = system: Staphylococcus aureus 447; experiment: MIC, standard broth micro-dilution assay, SA 447
Procedure: as §1

[4] = system: Staphylococcus aureus S13E
Procedure: as §1

[5] = system: Staphylococcus aureus 491; experiment: MIC, standard broth micro-dilution assay, SA 491
Procedure: as §1

[6] = system: Enterococcus faecalis 2041; experiment: MIC, standard broth micro-dilution assay, EF 2041
Procedure: as §1

[7] = system: Staphylococcus aureus X400; experiment: MIC, standard broth micro-dilution assay, SA X400
Procedure: as §1

[8] = system: Staphylococcus aureus SA1199A; experiment: MIC, standard broth micro-dilution assay, SA 1199A
Procedure: as §1

[9] = system: Staphylococcus haemolyticus 105; experiment: MIC, standard broth micro-dilution assay, SH 105
Procedure: as §1

[10] = system: Enterococcus faecium 180-1; experiment: MIC, standard broth micro-dilution assay, EF 180-1
Procedure: as §1

[11] = system: Staphylococcus epidermidis 270; experiment: MIC, standard broth micro-dilution assay, SE 270
Procedure: as §1

[12] = system: Sensitive Enterococcus faecium and faecalis; experiment: MIC, standard broth micro-dilution assay, Sensitive; conditions: geometric mean of 4-6 isolates
Procedure: as §1

[13] = system: Staphylococcus aureus 489; experiment: MIC, standard broth micro-dilution assay, SA 489
Procedure: as §1

[14] = system: Enterococcus faecalis 276; experiment: MIC, standard broth micro-dilution assay, EF 276
Procedure: as §1

[15] = system: Resistant Enterococcus faecium and faecalis; experiment: MIC, standard broth micro-dilution assay, Resistant; conditions: geometric mean of 4-6 isolates
Procedure: as §1

[16] = system: Staphylococcus aureus SA1199; experiment: MIC, standard broth micro-dilution assay, SA 1199
Procedure: as §1

[17] = system: Staphylococcus aureus X778; experiment: MIC, standard broth micro-dilution assay, SA X778
Procedure: as §1

[18] = system: Enterococcus faecium 180; experiment: MIC, standard broth micro-dilution assay, EF 180
Procedure: as §1

[19] = system: Haemophilus influenzae RD; experiment: MIC, standard broth micro-dilution assay, HFRD
Procedure: as §1

[20] = system: Staphylococcus aureus 446; experiment: MIC, standard broth micro-dilution assay, SA 446
Procedure: as §1

[21] = system: Escherichia coli EC14; experiment: MIC, standard broth micro-dilution assay, EC 14
Procedure: as §1

Compound | minimal inhibitory concentration (MIC), EG 245 [1] | minimal inhibitory concentration (MIC), SH 415 [2] | minimal inhibitory concentration (MIC), SA 447 [3] | minimal inhibitory concentration (MIC), SA S13E [4] | minimal inhibitory concentration (MIC), SA 491 [5] | minimal inhibitory concentration (MIC), EF 2041 [6] | minimal inhibitory concentration (MIC), SA X400 [7] | minimal inhibitory concentration (MIC), SA 1199A [8] | minimal inhibitory concentration (MIC), SH 105 [9] | minimal inhibitory concentration (MIC), EF 180-1 [10] | minimal inhibitory concentration (MIC), SE 270 [11] | minimal inhibitory concentration (MIC), Sensitive [12] | minimal inhibitory concentration (MIC), SA 489 [13] | minimal inhibitory concentration (MIC), EF 276 [14] | minimal inhibitory concentration (MIC), Resistant [15] | minimal inhibitory concentration (MIC), SA 1199 [16] | minimal inhibitory concentration (MIC), SA X778 [17] | minimal inhibitory concentration (MIC), EF 180 [18] | minimal inhibitory concentration (MIC), HFRD [19] | minimal inhibitory concentration (MIC), SA 446 [20] | further results
CC1OC(OC2c3ccc(c(Cl)c3)Oc3cc4cc(c3OC3OC(CO)C(O)C(O)C3OC3CC(C)(NCc5ccc(-c6ccccc6)cc5)C(O)C(C)O3)Oc3ccc(cc3Cl)C(O)C(NC(=O)C(N)CCCCN)C(=O)NC(CC(N)=O)C(=O)NC4C(=O)NC3C(=O)NC2C(=O)NC(C(=O)O)c2cc(O)cc(O)c2-c2cc3ccc2O)CC(C)(N)C1O [Example 31, N^1-L-lysine derivative of N^DISACC-(p-phenylbenzyl)desleucylA82846B] | 0.5 | 2 | 2 | 1 | 0.5 | 1 | 2 | 0.25 | 0.5 | 0.25 | 0.5 | 0.33 | 2 | 2 | 5.6 | 0.5 | 0.5 | 1 | >64 | 0.5 | minimal inhibitory concentration (MIC), EC 14 [21]: >64
CC(C)CC(N)C(=O)NC1C(=O)NC(CC(N)=O)C(=O)NC2C(=O)NC3C(=O)NC(C(=O)NC(C(=O)O)c4cc(O)cc(O)c4-c4cc3ccc4O)C(OC3CC(C)(N)C(O)C(C)O3)c3ccc(c(Cl)c3)Oc3cc2cc(c3OC2OC(CO)C(O)C(O)C2OC2CC(C)(NCc3ccc(-c4ccccc4)cc3)C(O)C(C)O2)Oc2ccc(cc2Cl)C1O [Example 13, N^1-D-leucine derivative of N^DISACC-(p-phenylbenzyl)desleucylA82846B] | ≦.06 | 0.5 | 1 | 0.5 | 1 | ≦.06 | 0.5 | 0.25 | 1 | ≦.06 | 0.25 | 0.095 | 0.5 | 0.5 | 2.4 | 1 | 1 | 0.25 | 16 | 1 | minimal inhibitory concentration (MIC), EC 14 [21]: >64
CC1OC(OC2c3ccc(c(Cl)c3)Oc3cc4cc(c3OC3OC(CO)C(O)C(O)C3OC3CC(C)(NCc5ccc(-c6ccccc6)cc5)C(O)C(C)O3)Oc3ccc(cc3Cl)C(O)C(NC(=O)c3ccc(-c5ccccc5)cc3)C(=O)NC(CC(N)=O)C(=O)NC4C(=O)NC3C(=O)NC2C(=O)NC(C(=O)O)c2cc(O)cc(O)c2-c2cc3ccc2O)CC(C)(N)C1O (stereo not drawn) [Example 6, N^1-(p-phenylbenzoyl)-N^DISACC-(p-phenylbenzyl)desleucylA82846B] | 1 | 2 | 2 | 1 | 0.5 | 2 | 1 | 0.125 | 0.5 | 0.25 | 0.5 | 3.5 | 2 | 2 | 38 | 0.5 | 0.5 | 2 | >64 | 1 | minimal inhibitory concentration (MIC), EC 14 [21]: >64
CCCCCCNC(CC(C)C)C(=O)NC1C(=O)NC(CC(N)=O)C(=O)NC2C(=O)NC3C(=O)NC(C(=O)NC(C(=O)O)c4cc(O)cc(O)c4-c4cc3ccc4O)C(OC3CC(C)(N)C(O)C(C)O3)c3ccc(c(Cl)c3)Oc3cc2cc(c3OC2OC(CO)C(O)C(O)C2OC2CC(C)(N)C(O)C(C)O2)Oc2ccc(cc2Cl)C1O [Example 39, N^1-(N-n-hexyl-D-leucine) derivative of desleucylA82846B] | 0.5 | 2 | 0.5 | 0.125 | ≦.06 | ≦.06 | ≦.06 | ≦.06 | 0.5 | no growth | 0.25 | 0.38 | ≦.06 | ≦.06 | 45 | 0.125 | ≦.06 | 2 | no | ≦.06 | minimal inhibitory concentration (MIC), EC 14 [21]: >64
CC1OC(OC2c3ccc(c(Cl)c3)Oc3cc4cc(c3OC3OC(CO)C(O)C(O)C3OC3CC(C)(NCc5ccc(-c6ccccc6)cc5)C(O)C(C)O3)Oc3ccc(cc3Cl)C(O)C(NC(=O)C3CCCN3)C(=O)NC(CC(N)=O)C(=O)NC4C(=O)NC3C(=O)NC2C(=O)NC(C(=O)O)c2cc(O)cc(O)c2-c2cc3ccc2O)CC(C)(N)C1O [Example 32, N^1-L-proline derivative of N^DISACC-(p-phenylbenzyl)desleucylA82846B] | 0.5 | 0.5 | 1 | 0.25 | 0.125 | 1 | 2 | ≦.06 | 0.125 | 0.125 | 0.125 | 0.76 | 1 | 2 | 16 | 0.25 | 0.5 | 2 | >64 | 1 | minimal inhibitory concentration (MIC), EC 14 [21]: >64
